Experimental data reported in patent US5510338A, “Phosphonoalkylquinolin-2-ones as novel antagonists of non-NMDA ionotropic excitatory amino acid receptors” (priority 1994, dated 1996).

Tests used:
[1] = target: GLU; assay: Inhibition of EAA receptor ligand binding, GLU; conditions: read-out: Receptor Potency (Ki), GLU
[2] = target: T1, Glycine (strychnine insensitive glycine binding) (Rattus norvegicus, UniProt P35439); assay: Strychnine insensitive glycine binding; conditions: read-out: Receptor Potency (Ki), Glycine
T1 construct: from tissue
Description: Binding assays for the displacement of ^3 H!AMPA were performed as described by Murphy et al. (Neurochemical Reseach. 12: 775-781 1987!). KA binding assays were performed as described by London et al (Molecular Pharmacology. 15:492-505 1979!); strychnine insensitive glycine binding was evaluated by the method of Snell et al (European Journal of Pharmacology. 156: 105-110 1988!.

[3] = target: KA receptors (KA-induced currents in rat brain mRNA-injected Xenopus oocytes); assay: Inhibition of KA-induced currents in rat brain mRNA-injected Xenopus oocytes; type: cell-based; conditions: for Potency to inhibit KA-induced currents, Ki: rat brain mRNA-injected Xenopus oocytes, voltage clamped at -60 to -70 mV, IC50 converted to Ki by Cheng-Prusoff equation
Description: Defolliculated oocytes obtained from Xenopus laevis females were injected with 30-75 ng of poly (A+) mRNA obtained from 21-day old male Sprague-Dawley rats. Oocytes were placed individually in 100 ml of antibiotic-supplemented modified Barthes solution (MBS, containing in mM: NaCl, 88; KCl 1.0; NaHCO3, 2.4 HEPES, 10; MgSO4 0.82; Ca(NO3)2, 0.33) in 96-well sterile plates and cultured for 48-120 hours prior to experimentation. Oocytes were inspected every 24 hours at which time the bathing solution is replaced with fresh MBS.
For electrophysiological studies, oocytes were positioned in a small recording chamber (500 ml) and superfused with antibiotic free MBS supplemented with CaCl2 (final concentration=1.4 mM). Oocytes are impaled with a single glass microelectrode, voltage clamped at -60 to -70 mV, and perfused by gravity feed at a rate of 3-5 ml/min at room temperature. […] Antagonists are coperfused with agonists.
Potencies to inhibit kainic acid-, AMPA- and NMDA/glycine-induced currents are determined from concentration-response curves. IC50 values are converted to Ki values for comparison purposes using the Cheng-Prusoff equation.

[4] = system: kainate receptors; conditions: U.S. Pat. No. 4,657,899, Table I on column 13; cited from earlier work
[5] = system: NMDA; conditions: U.S. Pat. No. 4,657,899; cited from earlier work
[6] = system: CNQX-labeled non-NMDA receptors; assay: Inhibition of EAA receptor ligand binding, CNQX (CNQX-labeled non-NMDA receptors); conditions: for selectivity for NMDA vs non-NMDA receptors: in words, from Table II data; for Ki: inhibition of EAA receptor ligand binding, CNQX-labeled non-NMDA receptors, read-out: Receptor Potency (Ki), CNOX

SMILES | Ki [1] | Ki [2] | Potency to inhibit KA-induced currents, Ki [3] | binding affinity for kainate receptors (in words) [4] | NMDA antagonist activity (in words) [5] | selectivity for NMDA vs non-NMDA receptors [6] | Ki [6] | activity in words of related compounds tested [3]
O=c1cc(P(=O)(O)O)c2ccc(Cl)cc2[nH]1 [Example 24, 7-Chloro-4-phosphonoquinolin-2-one] | > 300 µM | > 1000 µM | > 100 µM | – | – | – | – | –
NC(Cc1ccccc1CCP(=O)(O)O)C(=O)O (stereo not drawn) [2-amino-3-2-(2-phosphonoethyl)phenyl!propanoic acid] | – | – | – | very low binding affinity | antagonists of NMDA | – | – | –
O=c1cc(CP(=O)(O)O)c2ccc(I)cc2[nH]1 [Example 4, 7-Iodo-4-phosphonomethylquinolin-2-one] | 35 µM | 29 µM | 15.6 µM | – | – | not very selective | 26 µM | –
CCOP(=O)(Cc1cc(=O)[nH]c2cc(Cl)cc(Cl)c12)OCC [Example 21a, 5,7-Dichloro-4-(diethoxyphosphinyl)methylquinolin-2-one] | – | 103 µM | 480 µM | – | – | – | > 100 µM | essentially inactive
NC(CCCc1ccccc1CP(=O)(O)O)C(=O)O (stereo not drawn) [2-amino-5-2-phosphonomethylphenyl!pentanoic acid] | – | – | – | very low binding affinity | antagonists of NMDA | – | – | –
NC(Cc1ccccc1CP(=O)(O)O)C(=O)O (stereo not drawn) [2-amino-3-2-phosphonomethylphenyl!propanoic acid] | – | – | – | very low binding affinity | antagonists of NMDA | – | – | –
CCC(c1ccccc1CCCP(=O)(O)O)C(N)C(=O)O (stereo not drawn) [2-amino-3-2-(3-phosphonopropyl) phenyl!pentanoic acid] | – | – | – | very low binding affinity | antagonists of NMDA | – | – | –
O=c1cc(CP(=O)(O)O)c2c(Cl)cc(Cl)cc2[nH]1 [Example 3, 5,7-Dichloro-4-phosphonomethylquinolin-2-one] | > 100 µM | 28 µM | 18.2 µM | – | – | quite selective | 38 µM | –
O=C(O)c1cc(CP(=O)(O)O)c2ccc(Cl)cc2n1 [Example 23, 2-Carboxy-7-chloro-4-phosphonomethylquinoline] | – | 68 µM | 129 µM | – | – | – | 64 µM | –
O=c1cc(CP(=O)(O)O)c2cc(Cl)c(Cl)cc2[nH]1 [Example 5, 6,7-Dichloro-4-phosphonomethylquinolin-2-one] | > 100 µM | – | 9.6 µM | – | – | quite selective | 15 µM | –
O=c1cc(CP(=O)(O)O)c2c([N+](=O)[O-])c(Cl)ccc2[nH]1 [Example 26, 6-Chloro-5-nitro-4-phosphonomethylquinolin-2-one] | > 1000 µM | > 1000 µM | > 300 µM | – | – | – | > 1000 µM | –
O=C(O)c1cc(CCP(=O)(O)O)c2ccc(Cl)cc2n1 [Example 22, 2-Carboxy-7-chloro-4-phosphonethylquinoline] | > 100 µM | > 1000 µM | 450 µM | – | – | – | 384 µM | –
O=c1cc(CP(=O)(O)O)c2ccc(Cl)cc2[nH]1 [Example 2, 7-Chloro-4-phosphonomethylquinolin-2-one] | 30 µM | 10 µM | 32 µM | – | – | not very selective | 59 µM | –
O=c1cc(CP(=O)(O)O)c2ccc(Cl)c([N+](=O)[O-])c2[nH]1 [Example 25, 7-Chloro-8-nitro-4-phosphonomethylquinolin-2-one] | > 1000 µM | > 1000 µM | – | – | – | – | 300 µM | –
O=c1cc(CCP(=O)(O)O)c2ccc(Cl)cc2[nH]1 [Example 1, 7-Chloro-4-phosphonethylquinolin-2-one] | 600 µM | 231 µM | – | – | – | – | 91 µM | –
